Counter-ions that a name gives are not always drawn. Like-named read-outs stand apart in the source and are kept apart here.
Tests used:
in vitro = conditions: for cytotoxicity at 41 h, 10 µM: human
Cryptosporidium parvum = assay: qRT-PCR assay of the growth of C. parvum in vitro in HCT-8 host cells (primary and secondary screening, EC50); assay type: cell-based; conditions: Cryptosporidium parvum, HCT-8; primary screening at 10 uM; read-out: Inhibition (%)
[1] = primary screening at 10 uM, treated vs control

SMILES | cytotoxicity at 41 h, 10 µM (in vitro) [%] | inhibition at 10 µM (Cryptosporidium parvum) [%] | Hs18S ΔCT (HCT-8 host cells (Hs18S); human, 41 h, 10 μM) | cytotoxicity at 10 µM (in vitro) [%] | Hs18S ΔCT (HCT-8 host cells (Hs18S); [1])
N[C@@H](Cc1cc(I)c(Oc2cc(I)c(O)c(I)c2)c(I)c1)C(=O)O [LEVOTHYROXINE] | -2.2 | -12.4 | -0.03 | – | –
CC1(C)O[C@H]2CC(=O)OC[C@]23[C@H]2CC[C@@]4(C)[C@H](c5ccoc5)OC(=O)[C@H]5O[C@]54[C@]2(C)C(=O)C[C@@H]13 [LIMONIN] | -8.4 | 26.2 | -0.12 | – | –
C=C[C@@](C)(O)CCC=C(C)C [LINALOOL (+)] | – | -23.3 | – | 6.1 | 0.09
CC(C)(C#N)O[C@@H]1O[C@H](CO)[C@@H](O)[C@H](O)[C@H]1O [LINAMARIN] | 33.5 | 6.23 | – | – | 0.59
C[C@H](CCC(=O)O)[C@H]1CC[C@H]2[C@@H]3CC[C@@H]4C[C@H](O)CC[C@]4(C)[C@H]3CC[C@]12C [LITHOCHOLIC ACID] | 36.1 | -55.8 | 0.65 | – | –
CCCCCc1c2c(cc(O)c1C(=O)O)OC(=O)c1c(cc(OC)cc1C(=O)CCCC)O2 [LOBARIC ACID] | 13.1 | 18.2 | 0.20 | – | –
O=C(O)CCC1NCC2CC1CN1CCCCC21 (stereo not drawn) [LUPANYL ACID HYDROCHLORIDE] | 6 | 5.4 | 0.09 | – | –
C=C(C)[C@@H]1CC[C@]2(C)CC[C@]3(C)[C@H](CC[C@@H]4[C@@]5(C)CC[C@H](O)C(C)(C)[C@@H]5CC[C@]43C)[C@@H]12 [LUPEOL] | 3.4 | 41.8 | – | – | 0.05
OC[C@@H]1CCCN2CCCC[C@H]12 [LUPININE] | 11.8 | 26.1 | 0.18 | – | –
C[C@H]1[C@H](C)CC[C@]2(C(=O)O)CC[C@]3(C)C(=CC[C@@H]4[C@@]5(C)C[C@@H](O)[C@H](O)[C@@](C)(CO)[C@@H]5[C@H](O)C[C@]43C)[C@H]12 [MADECASSIC ACID] | – | -20.3 | – | -11.7 | -0.16
COC(=O)C(O)c1ccccc1 (stereo not drawn) [MANDELIC ACID, METHYL ESTER] | 19.1 | -2.26 | 0.31 | – | –
O=c1c2cc(O)c(O)cc2oc2cc(O)c([C@@H]3O[C@H](CO)[C@@H](O)[C@H](O)[C@H]3O)c(O)c12 [MANGIFERIN] | 11.5 | -3.49 | 0.18 | – | –
COc1ccc2[nH]cc(CCNC(C)=O)c2c1 [MELATONIN] | -196 | -62.2 | -1.56 | – | –
OC[C@H]1O[C@@](CO)(O[C@H]2O[C@H](CO)[C@@H](O)[C@H](O)[C@H]2O)[C@@H](O[C@H]2O[C@H](CO)[C@@H](O)[C@H](O)[C@H]2O)[C@@H]1O [MELEZITOSE] | -13 | -16.8 | -0.18 | – | –
CC1=CC(=O)c2ccccc2C1=O [MENADIONE] | 29 | -2.86 | 0.49 | – | –
CC(C)=CCC/C(C)=C/CC/C(C)=C/CC/C(C)=C/CC1=C(C)C(=O)c2ccccc2C1=O [MENAQUINONE-4] | 4.1 | -13.8 | 0.06 | – | –
CC(C)[C@@H]1CC[C@@H](C)CC1=O [MENTHONE] | -14.5 | 28.9 | -0.20 | – | –
CC(C)[C@@H]1CC[C@@H](C)C[C@H]1OC(=O)c1ccccc1 [MENTHYL BENZOATE] | 15.1 | 1.74 | 0.24 | – | –
CC1=C2C(O)C(=O)OC3CC4C(C)(C)C(=O)C=C[C@]4(C)C(CC1)[C@]23C (stereo partly drawn) [MEROGEDUNIN] | -41.1 | -12.3 | -0.50 | – | –
COc1cc2c(cc1OC)C(=O)OC2 [METAMECONINE] | 20.2 | 24.5 | 0.33 | – | –
COC(=O)c1cc(O)c(=O)c2c(O)c(O)ccc2c1 [METHYL 7-DESHYDROXYPYROGALLIN-4-CARBOXYLATE] | 10.5 | -4.08 | 0.16 | – | –
COC(=O)c1cc(OC)c(=O)c2c(OC)c(OC)ccc2c1 [METHYL 7-DESOXYPURPUROGALLIN-7-CARBOXYLATE TRIMETHYL ETHER] | 0.1 | -15.9 | 0.00 | – | –
COC(=O)CC[C@@H](C)[C@H]1CC[C@H]2[C@@H]3CC[C@@H]4C[C@H](O)CC[C@]4(C)[C@H]3C[C@H](O)[C@]12C [METHYL DEOXYCHOLATE] | 36.7 | 23.4 | 0.66 | – | –
COC(=O)c1c(C)cc(O)cc1O [METHYL ORSELLINATE] | 19.6 | -34.8 | 0.31 | – | –

Source: publication PMC6736568, “Discovery of Novel Anti-cryptosporidial Activities From Natural Products by in vitro High-Throughput Phenotypic Screening” (Frontiers in Microbiology, 2019)
